Here are results for two molecules from ChEMBL document CHEMBL3217441, “Aromatic chloride to nitrile transformation: medicinal and synthetic chemistry” (Medchemcomm, 2010).

A short description of data set [1]: Lipophilicity, log D of the compound at pH 7.4. Conditions: buffer. The class given is physicochemical.
A short description of data set [2]: Half life in human liver microsomes. The class given is ADME. In general terms: Liver microsomes are a subcellular fraction often used to study metabolism.
Data set [3] is described as follows: Inhibition of HIV-1 RDDP after 30 mins by scintillation counting analysis in presence of [3H]-TTP. Also on record: species or system Human immunodeficiency virus 1.

Molecules are shown by their SMILES.

In general, logD refers to the decadic logarithm of the distribution of all forms, ionised or not, between an organic phase and buffer at a given pH. High values mean higher lipophilicity, low ones lower lipophilicity. Usually half-life stands for the time needed for the level to fall by half in the phase considered. For orientation: IC50 means the midpoint of a concentration-inhibition curve. With `CCc1nc(C)n(CC)c1Oc1cc(Cl)cc(C#N)c1`, the logD in data set [1] was 3.2. This molecule also had a half-life in data set [2] of 16 min. Also, the IC50 in data set [3] worked out at 0.018 µM.

Take `CCc1nc(C)n(CC)c1Oc1cc(C#N)cc(C#N)c1`: the logD in data set [1] amounted to 1.9. The molecule further showed a half-life in data set [2] of 101 min. Besides, in data set [3], the 50% inhibitory concentration (IC50) turned out to be 0.131 µM.
